Data from patent publication US11584747B2, “Substituted pyridopyrimidinonyl compounds useful as T cell activators” (BRISTOL-MYERS SQUIBB COMPANY, priority 2019, dated 2023).
Where two headings read alike, the source gives them in different places.

Experiments:
human DGKα [1] = biological target: T1, human DGKα (Homo sapiens (Human), UniProt P23743); assay: DGKα LIPGLO assay (extruded liposome substrate, ADP-Glo luminescence); format: biochemical; details: liposome (LIPGLO) assay; read-out: DGK alpha (liposome assay) IC50
human DGKζ = human DGKζ (Homo sapiens (Human), UniProt Q13574); assay: DGKζ LIPGLO assay (extruded liposome substrate, ADP-Glo luminescence); format: biochemical; details: liposome (LIPGLO) assay; read-out: DGK zeta (liposome assay) IC50
[2] = tested on: human venous whole blood (IFN-γ); assay: Human whole blood IFN-γ assay; format: cell-based; details: human whole blood, anti-CD3 plus anti-CD28 stimulation, 24 hours, read-out: IFN-γ Whole Blood EC50
Protocol: Human venous whole blood (22.5 μL per well), obtained from healthy donors, was pre-treated with compounds for one hour at 37° C. in a humidified 95% air/5% CO2 incubator. The blood was stimulated with 2.5 μL anti-human CD3 and anti-CD28 mAb at a final concentration of 1 μg/mL each for 24 hours at 37° C. IFN-γ in the supernatants was measured using AlphLISA kit (Cat #AL217).

whole blood (pERK) = assay: pERK Whole Blood; format: cell-based
human DGKα [3] = biological target: T1, human DGKα; assay: DGKα ADPGLO assay (detergent/lipid micelle substrate); format: biochemical; details: ADPGLO assay; read-out: DGK alpha ADPGLO IC50
Protocol: DGK Alpha ADPGLO (Truncated) IC50 (uM)
The detergent/lipid micelle was prepared by combining 15 g phosphatidylserine (Avanti 840035P) and 1 g diacylglycerol (8008110) and dissolving into 150 mL chloroform in a 2 L round bottom flask. Chloroform was removed under high vacuum by rotary evaporation. […] The lipid/detergent solution was split into 5 mL aliquots and stored at −80° C.

T1 sequence (P23743 whole entry, looked up): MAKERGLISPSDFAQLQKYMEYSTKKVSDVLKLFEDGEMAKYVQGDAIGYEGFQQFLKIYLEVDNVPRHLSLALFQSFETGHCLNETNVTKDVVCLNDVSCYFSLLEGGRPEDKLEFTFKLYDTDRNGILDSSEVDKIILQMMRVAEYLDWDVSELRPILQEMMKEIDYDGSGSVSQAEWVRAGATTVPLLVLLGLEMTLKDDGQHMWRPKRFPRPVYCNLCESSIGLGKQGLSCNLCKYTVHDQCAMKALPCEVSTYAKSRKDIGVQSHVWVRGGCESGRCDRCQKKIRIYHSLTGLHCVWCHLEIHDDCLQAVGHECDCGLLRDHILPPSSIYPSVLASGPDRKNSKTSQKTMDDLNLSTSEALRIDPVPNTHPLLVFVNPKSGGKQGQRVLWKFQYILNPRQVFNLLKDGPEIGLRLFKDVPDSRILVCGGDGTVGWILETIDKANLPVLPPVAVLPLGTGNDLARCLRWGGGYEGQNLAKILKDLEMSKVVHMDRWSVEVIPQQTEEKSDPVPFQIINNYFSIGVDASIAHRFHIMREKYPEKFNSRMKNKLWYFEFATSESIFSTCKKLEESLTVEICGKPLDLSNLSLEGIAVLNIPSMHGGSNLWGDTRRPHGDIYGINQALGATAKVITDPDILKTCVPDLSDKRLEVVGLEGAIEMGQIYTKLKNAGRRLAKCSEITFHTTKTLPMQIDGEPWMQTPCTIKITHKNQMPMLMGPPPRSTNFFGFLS
Sequence of human DGKζ (Q13574 other isoform, or with tags, fused parts or gaps): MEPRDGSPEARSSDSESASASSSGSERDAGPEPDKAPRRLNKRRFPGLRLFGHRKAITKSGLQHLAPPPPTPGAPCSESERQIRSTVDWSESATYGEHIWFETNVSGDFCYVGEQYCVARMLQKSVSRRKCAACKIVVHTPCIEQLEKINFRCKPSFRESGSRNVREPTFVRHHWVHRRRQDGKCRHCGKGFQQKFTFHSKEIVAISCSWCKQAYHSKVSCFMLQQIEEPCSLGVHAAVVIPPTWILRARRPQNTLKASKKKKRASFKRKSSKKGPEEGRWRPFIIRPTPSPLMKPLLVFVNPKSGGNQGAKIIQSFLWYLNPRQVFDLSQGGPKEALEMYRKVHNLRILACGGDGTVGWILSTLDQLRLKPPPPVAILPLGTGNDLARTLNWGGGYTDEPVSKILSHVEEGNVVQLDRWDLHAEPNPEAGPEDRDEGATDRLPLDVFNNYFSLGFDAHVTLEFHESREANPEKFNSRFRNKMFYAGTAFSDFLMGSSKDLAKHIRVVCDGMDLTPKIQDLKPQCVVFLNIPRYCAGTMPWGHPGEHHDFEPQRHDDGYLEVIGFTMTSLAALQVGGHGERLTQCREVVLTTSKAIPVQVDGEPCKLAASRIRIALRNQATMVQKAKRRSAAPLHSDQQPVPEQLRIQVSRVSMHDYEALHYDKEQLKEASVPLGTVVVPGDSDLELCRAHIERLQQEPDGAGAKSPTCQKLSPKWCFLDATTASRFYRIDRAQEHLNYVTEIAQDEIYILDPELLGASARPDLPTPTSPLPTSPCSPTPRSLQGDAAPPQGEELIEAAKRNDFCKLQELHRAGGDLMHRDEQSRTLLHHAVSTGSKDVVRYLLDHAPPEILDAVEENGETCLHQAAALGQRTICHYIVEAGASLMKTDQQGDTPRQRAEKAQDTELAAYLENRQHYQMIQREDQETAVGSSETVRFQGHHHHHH

Row | SMILES | IC50 (human DGKα [1]) [µM] | IC50 (human DGKζ) [µM] | EC50 ([2]; Homo sapiens, 24 h) [µM] | EC50 (whole blood (pERK)) [µM] | IC50 (human DGKα [3]) [µM] | EC50 [2] [µM]
1 | COC(=O)NC[C@@H]1CN(c2nc(=O)n(C)c3ccc(C#N)nc23)[C@@H](C)CN1C(C)c1ccc(C(F)(F)F)cc1 (stereo partly shown) [Example 405] | 13.6 | 0.11 | 1.19 | 2.58 |  | 
2 | CC[C@H]1CN(C(c2ccc(F)cc2)c2noc(C3CC3)n2)[C@H](CC)CN1c1nc(=O)n(C)c2ccc(C#N)nc12 (single isomer, unassigned) [Example 371] |  | 0.1 | 0.19 | 3.32 | 0.013 | 
3 | CC(c1ccc(C(F)(F)F)cc1)N1C[C@H](C)N(c2nc(=O)n(C)c3ccc(Cl)nc23)C[C@H]1CN=[N+]=[N-] (stereo partly drawn) [Example 402, 4-((2S,5S)-5-(Azidomethyl)-2-methyl-4-(1-(4-(trifluoromethyl)phenyl)ethyl)piperazin-1-yl)-6-chloro-1-methylpyrido[3,2-d]pyrimidin-2(1H)-one] | 49.5 | 4.76 | 1.39 | 3.67 |  | 
4 | CCC(c1ccc(OCC2CC2)cc1)N1C[C@H](C)N(c2nc(=O)n(C)c3ccc(C#N)nc23)C[C@H]1CC (stereo partly drawn) [Example 308, 4-((2S,5R)-4-(1-(4-(cyclopropylmethoxy)phenyl)propyl)-5-ethyl-2-methylpiperazin-1-yl)-1-methyl-2-oxo-1,2-dihydropyrido[3,2-d]pyrimidine-6-carbonitrile] |  | 0.039 |  | 0.89 | 0.062 | 0.034
5 | CCC(c1ccc(OC)cc1)N1C[C@H](C)N(c2nc(=O)n(C)c3ccc(C#N)nc23)C[C@H]1CC (stereo partly drawn) [Example 305, 4-((2S,5R)-5-ethyl-4-(1-(4-methoxyphenyl)propyl)-2-methylpiperazin-1-yl)-1-methyl-2-oxo-1,2-dihydropyrido[3,2-d]pyrimidine-6-carbonitrile] |  | 1.4 |  | 3.67 | 0.062 | 11.7
6 | CC(c1ccc(CN2CCC(F)(F)CC2)cc1)N1C[C@H](C)N(c2nc(=O)n(C)c3ccc(C#N)nc23)C[C@H]1C (stereo partly drawn) [Example 390, 4-((2S,5R)-4-(1-(4-((4,4-difluoropiperidin-1-yl)methyl)phenyl)ethyl)-2,5-dimethylpiperazin-1-yl)-1-methyl-2-oxo-1,2-dihydropyrido[3,2-d]pyrimidine-6-carbonitrile] |  | 0.18 |  | 20 | 0.097 | 0.04
7 | CC[C@H]1CN(C(C)c2ccc(C(F)(F)F)cc2)[C@H](CC)CN1c1nc(=O)n(C)c2ccc(OCCN(C)C)nc12 (stereo partly drawn) [Example 431, 4-((2S,5R)-2,5-diethyl-4-(1-(4-(trifluoromethyl)phenyl)ethyl)piperazin-1-yl)-6-(2-(dimethylamino)ethoxy)-1-methylpyrido[3,2-d]pyrimidin-2(1H)-one] |  | 250 | 20 | 20 | 250 | 
8 | CC(c1ccc(CN2CCOC(C)(C)C2)cc1)N1C[C@H](C)N(c2nc(=O)n(C)c3ccc(C#N)nc23)C[C@H]1C (single isomer, unassigned) [Example 385] |  | 0.043 |  | 0.24 | 0.012 | 0.13
9 | CCC(c1ccc(OC(C)C)cc1)N1C[C@H](C)N(c2nc(=O)n(C)c3ccc(C#N)nc23)C[C@H]1CC (stereo partly drawn) [Example 334, 4-((2 S,5R)-5-ethyl-4-(1-(4-isopropoxyphenyl)propyl)-2-methylpiperazin-1-yl)-1-methyl-2-oxo-1,2-dihydropyrido[3,2-d]pyrimidine-6-carbonitrile] |  | 0.53 |  | 20 | 0.46 | 0.73
10 | CC(c1ccc(CN2CCC(F)(F)CC2)cc1)N1C[C@H](C)N(c2nc(=O)n(C)c3ccc(C#N)nc23)C[C@H]1C (stereo partly drawn) [Example 391, 4-((2S,5R)-4-(1-(4-((4,4-difluoropiperidin-1-yl)methyl)phenyl)ethyl)-2,5-dimethylpiperazin-1-yl)-1-methyl-2-oxo-1,2-dihydropyrido[3,2-d]pyrimidine-6-carbonitrile] |  | 1.34 |  | 1.13 | 2.02 | 0.72
